Experimental data from patent publication US20190070165A1, “N-HYDROXYISOQUINOLINEDIONE INHIBITORS OF HBV REPLICATION” (Saint Louis University, priority 2016, published 2019).
Like-named read-outs stand apart in the source and are kept apart here.

Columns and labels:
HSV-1 = HSV-1 replication inhibition assay in Vero cells; type: cell-based, herpes simplex virus 1; conditions: Human alphaherpesvirus 1, 24 h; 5 μM, Vero cells; read-out: HSV-1 suppression (log10 at 5 μM), class symbol
Protocol: Thirty-seven compounds were counter-screened for efficacy against HSV-1 to evaluate specificity of the inhibitors and to help determine if the efficacy against HBV replication may be due to an unsuspected indirect effect on the cells. Vero cells infected with HSV-1 at an MOI of 0.1 were treated with 5 μM of compound for 24 hours. Inhibition was calculated as log 10 suppression of plaque forming units compared with DMSO vehicle control.
Vero cells were maintained DMEM supplemented with 3% newborn calf serum, 3% bovine growth serum, 2 mM L-glutamine, and P/S. Test compounds were applied to the cells in the presence of 0.05% DMSO. The herpes simplex virus 1 (HSV-1) strain used for screening was a de-identified clinical isolate from the Saint Louis University Hospital passaged once in culture.
Compounds and virus were diluted in phosphate buffered saline (PBS) containing 2% newborn calf serum and 2 mM L-glutamine so that the final concentration of compound was 5 μM. The cells were incubated at 37° C. for 1 hour with the virus containing inoculum, then the inoculum was removed and the wells were washed once in PBS. Compound diluted to 5 μM in supplemented DMEM was added and cells were incubated at 37° C. for an additional 23 hours. The plates were then microscopically inspected for cytopathic effect (CPE) or toxicity and then frozen at −80° C. Virus titers for wells with limited CPE compared to DMSO vehicle-treated controls were then determined by plaque assay on Vero cells. Each experiment was repeated at least once.

human RNaseH1 = biological target: T1, human RNaseH1 (Homo sapiens, UniProt O60930); experiment: Oligonucleotide-directed RNA cleavage assay, human RNaseH1; type: biochemical; conditions: for IC50: Table 1, quantitative values
T1 construct: made in house; host or cells: E. coli
T1 sequence (O60930 1-286): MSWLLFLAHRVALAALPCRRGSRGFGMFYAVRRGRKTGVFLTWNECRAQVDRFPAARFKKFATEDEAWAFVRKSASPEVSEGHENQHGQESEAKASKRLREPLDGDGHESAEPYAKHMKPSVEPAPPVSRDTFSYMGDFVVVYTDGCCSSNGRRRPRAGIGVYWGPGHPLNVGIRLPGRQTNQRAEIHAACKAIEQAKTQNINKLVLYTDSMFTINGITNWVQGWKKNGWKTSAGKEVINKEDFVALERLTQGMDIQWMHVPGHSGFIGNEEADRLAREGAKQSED
Text: RNaseH expression and purification.
Oligonucleotide-directed RNA cleavage assay.

HBV RNaseH [1] = biological target: T2, HBV RNaseH (Hepatitis B virus genotype D subtype ayw, UniProt P03156); conditions: for Inhibition of HBV RNaseH, Oligonucleotide directed cleavage assay: Table 3, compounds at 100, 60 and 20 μM, compounds 1-91 and 138-140 previously reported (Cai et al., 2014)
Protocol: RNaseH expression and purification. […] The enriched extracts were dialyzed into 50 mM HEPES pH 7.3, 300 mM NaCl, 20% glycerol, and 5 mM DTT and stored in liquid nitrogen.
Oligonucleotide-directed RNA cleavage assay. […] This mixture was incubated with test compounds in 50 mM Tris pH 8.0, 190 mM NaCl, 5 mM MgCl2, 3.5 mM DTT, 0.05% NP40, 6% glycerol, and 1% DMSO at 42° C. for 90 minutes. Cleavage products were resolved by denaturing polyacrylamide gel electrophoresis, detected by autoradiography, and quantified using ImageJ. Non-specific background values were determined from the incorrect oligonucleotide negative control lane and subtracted from all experimental values. IC50 values were then calculated with GraphPad Prism using three-parameter log(inhibitor) vs. response non-linear curve fitting with the curve minimum set to zero to reflect background subtraction.
The HBV RNaseH inhibition activity of the 16 previously untested compounds was examined using an oligonucleotide-directed cleavage assay. Compounds were incubated with the HBV RNaseH, a ^32P-labeled RNA substrate plus a complementary DNA oligonucleotide and compounds at 100, 60, and 20 μM and the amount of the RNA cleavage products was measured following resolution on an acrylamide gel.
Briefly, a ^32P-labeled RNA was combined with a DNA oligonucleotide and the RNA:DNA substrate was incubated in the presence of the RNaseH and test compounds in 50 mM tris pH 8.0, 190 mM NaCl, 5 mM MgCl2, 3.5 mM DTT, 0.05% NP40, 6% glycerol, and 1% DMSO at 42° C. for 90 minutes. The products were resolved by gel electrophoresis and detected by audioradioagraphy.

HBV RNaseH [2] = biological target: T2, HBV RNaseH; experiment: Molecular beacon RNaseH assay; conditions: for inhibition in the molecular beacon assay: 2.1 μg purified HBV RNaseH; for Inhibition of HBV RNaseH, Molecular Beacon cleavage assay: Table 3, 0 to 500 μM
HBV replication = HBV replication inhibition assay in HepDES19 cells (strand-preferential q-PCR); type: cell-based, Hepatitis B virus; conditions: for EC50: Hepatitis B virus
Protocol: HBV replication assay. […] Cells were seeded into 6-well plates and incubated in DMEM/F12, 10% fetal bovine serum (FBS), 1% penicillin/streptomycin (P/S) with 1 μg/mL tetracycline. Tetracycline was withdrawn after 24 hours. The test compound was applied to duplicate wells 48 hours later in medium containing a final DMSO concentration of 1%, and medium containing the compound was refreshed daily for the following two days. Cells were harvested and non-encapsidated nucleic acids were digested with micrococcal nuclease (New England Biolabs). HBV DNA was purified from capsids using QIAamp Cador Pathogen Mini Kit (Qiagen) with proteinase K incubation overnight at 37° C. TaqMan PCR was performed for 40 cycles at an annealing temperature of 60° C.
Thirty-nine HID, HPD, flutimide, and related POH compounds (Structures shown in FIG. 3) were screened for their ability to inhibit HBV replication in HepDES19 cells. […] Inhibition was calculated as the amount of plus-polarity DNA relative to the DMSO treated controls.
Briefly, HepDES19 were seeded in 12-well plates at 2×10^5 cells per well in the absence of tetracycline. Test compound was applied to cells 48 hours after removal of tetracycline. […] HBV DNA was purified from capsids using a QIAamp pathogen minikit with proteinase K digestion extended to overnight at 37° C. TaqMan PCR was performed for 40 cycles with an annealing temperature of 60° C.

MTT cytotoxicity assay = type: cell-based; conditions: human; Table 2, HepDES19 cells
Protocol: MTT cytotoxicity assays. 1.0×10^4 HepDES19 cells per well were seeded in 96-well plates and incubated in DMEM with 10% FBS plus 1% P/S, 1% non-essential amino acids, and 1% glutamine. Compounds were diluted in medium to the indicated concentrations plus 1% DMSO and added to cells 24 hours after plating, with each concentration tested in triplicate. Medium containing the compound was refreshed daily for the next two days. Thiazolyl blue tetrazolium bromide (MTT, Sigma-Aldrich) was added to 0.25 mg/mL, the cultures were incubated for 60 minutes, metabolites were solubilized in acidic isopropanol, and absorbance was read at 570 nm.

[3] = Lactate dehydrogenase (LDH) release cytotoxicity assay; type: cell-based; conditions: human, HepDES19 cells, read-out: Toxicity in HepDES19, LDH (CC50)
Protocol: (§1) To further evaluate potential cytotoxicity of these hits, the effect of the compounds was determined for the uptake of neutral red (NR) by the lysosomes and lactate dehydrogenase (LDH) release into the supernatant due to cell membrane permeability. […] Overall, the TI values in Table 3 and FIG. 4 indicate that cytotoxicity was not the cause of antiviral efficacy, although it may have contributed to the apparent efficacy for #84, 85, 90, and 91, which all have TI values below 5.

[4] = Neutral red (NR) cytotoxicity assay; type: cell-based; conditions: human, HepDES19 cells, read-out: Toxicity in HepDES19, NR (CC50)
Protocol: as §1

HepDES19 cells = experiment: MTS cytotoxicity assay (CellTiter 96); conditions: CC50 by MTS assay over EC50
Protocol: (§2) HepDES19 cells were seeded at 1×10^4 cells per well in a 96 well plate in the absence of tetracycline. The test compounds were applied in triplicate to the cells 48 hours later and the cells were incubated for 72 hours. Cell viability was measured using the CellTiter 96 Aqueous Non-Radioactive Cell Proliferation Assay (Promega). [3-(4,5-dimethylthiazol-2-yl)-5-(3-carboxymethoxyphenyl)-2-(4-sulfophenyl)-2H-tetrazolium, inner salt] (MTS) and phenazine methosulfate (PMS) solution at 2 mg/mL MTS and 0.043 mg/mL PMS were added to the medium, the cells were incubated for two hours at 37° C., and absorbance was measured at 490 nm. […] Neutral red was added to the media at a final concentration of 40 μg/mL. Cells were washed with PBS and incubated with neutral red medium for two hours at 37° C. The neutral red medium was removed and the cells were washed with PBS. […] Lactate dehydrogenase (LDH) release was measured using the LDH-cytotoxicity colorimetric assay kit (BioVision). Cells were lysed with 1% Triton-X to provide the high control and DMSO vehicle treatment was the low control. Supernatants were collected and transferred to a fresh 96 well plate, and LDH reaction mixture containing the catalyst and dye solution was added. The reaction was incubated for 15-20 minutes at room temperature in a dark box and absorbance was measured at 490 nm. Percent cytotoxicity was calculated as [(test sample−low control)/([…])]×100.

[5] = MTS cytotoxicity assay (CellTiter 96); conditions: human
Protocol: as §2

HBV polymerase = biological target: T3, HBV polymerase (Hepatitis B virus genotype D subtype ayw, UniProt P03156); experiment: Endogenous polymerase reaction (EPR) in isolated HBV capsids; type: biochemical; conditions: ddTTP 5.7 μM; for effect on 32P incorporation in EPR: inhibitors at 4× EC50, #138 and #211 at 30 μM
T3 construct: expressed in transfected cells; host or cells: HepDES19 (HepG2 with a stably transfected HBV genotype D genome)
Text: Anti-RNaseH activity is implied from their preferential suppression of the plus-polarity DNA strand (FIG. 4), but strand-preferential inhibition could also result from inhibiting the polymerase also. This is because positive-polarity DNA synthesis can be suppressed both directly by inhibiting the RNaseH enzyme and indirectly by reducing the amount of negative-polarity DNA strand that templates the positive-polarity strand, whereas minus-polarity DNA synthesis can only be suppressed by chain termination. To determine if the efficacy of these compounds was due to inhibition of the HBV polymerase, capsids isolated from HepDES19 cells were tested in the endogenous polymerase reaction (EPR) to measure DNA chain elongation by the HBV polymerase along the HBV nucleic acids within the capsids. Isolated HBV capsids were supplied with dATP, dTTP, dGTP, and [α^32P]dCTP in the presence of inhibitors at 4× their EC50 values; negative control compounds #138 and #211 were tested at 30 μM. 1% DMSO was used as a vehicle control, and ddTTP (5.7 μM) was the positive control polymerase inhibitor. Samples were incubated at 37° C. for 7 hours to permit DNA chain elongation by the encapsidated HBV polymerase. Nucleic acids were purified, resolved on a 0.8% agarose gel and detected by autoradiography. DNAs from HBV capsids treated with the compounds incorporated ^32P similarly to DMSO control (FIG. 5).
HBV cores were harvested from HepDES19 cells grown in the absence of tetracycline for 20 days using polyethylene glycol 8000 precipitation (Guo et al., 2003). Cells were rinsed in PBS and lysed in 1 mL core lysis buffer with 2 μL of protease inhibitor cocktail (Sigma) at room temperature for 10 minutes. Cell lysates were collected and 10 mM CaCl2) was added. The lysate was centrifuged for 5 minutes at 21,000 g, the supernatant was incubated with 150 U of micrococcal nuclease at 37° C. for 60 minutes, and then 27 mM EDTA was added to stop the reaction. 333 μL of 26% PEG8000 was added to precipitate core particles and incubated at 4° C. for 6 hours. The samples were centrifuged at 21,000 g for 20 minutes at 4° C. The supernatant was removed and the pellet was resuspended in 250 μL of 10 mM Tris buffer pH 7.5. Cores were stored at −80° C.
The endogenous polymerase reaction was done using a modified procedure from (Nguyen et al., 2007). […] These nucleic acids were dissolved in tris-EDTA buffer, resolved on a 0.8% agarose gel, transferred to a HyBondN membrane, and detected by autoradiography. Band intensities for each experiment were quantified using Image J and percent inhibition was calculated relative to the DMSO-treated reactions. Statistical significance of variation in band intensities was evaluated using a one-way ANOVA with a Dunnett post hoc analysis, with p=0.05 indicating significance.

[6] = HepDES19, read-out: HBV replication inhibition (EC50, μm)

T3 sequence (P03156 whole entry): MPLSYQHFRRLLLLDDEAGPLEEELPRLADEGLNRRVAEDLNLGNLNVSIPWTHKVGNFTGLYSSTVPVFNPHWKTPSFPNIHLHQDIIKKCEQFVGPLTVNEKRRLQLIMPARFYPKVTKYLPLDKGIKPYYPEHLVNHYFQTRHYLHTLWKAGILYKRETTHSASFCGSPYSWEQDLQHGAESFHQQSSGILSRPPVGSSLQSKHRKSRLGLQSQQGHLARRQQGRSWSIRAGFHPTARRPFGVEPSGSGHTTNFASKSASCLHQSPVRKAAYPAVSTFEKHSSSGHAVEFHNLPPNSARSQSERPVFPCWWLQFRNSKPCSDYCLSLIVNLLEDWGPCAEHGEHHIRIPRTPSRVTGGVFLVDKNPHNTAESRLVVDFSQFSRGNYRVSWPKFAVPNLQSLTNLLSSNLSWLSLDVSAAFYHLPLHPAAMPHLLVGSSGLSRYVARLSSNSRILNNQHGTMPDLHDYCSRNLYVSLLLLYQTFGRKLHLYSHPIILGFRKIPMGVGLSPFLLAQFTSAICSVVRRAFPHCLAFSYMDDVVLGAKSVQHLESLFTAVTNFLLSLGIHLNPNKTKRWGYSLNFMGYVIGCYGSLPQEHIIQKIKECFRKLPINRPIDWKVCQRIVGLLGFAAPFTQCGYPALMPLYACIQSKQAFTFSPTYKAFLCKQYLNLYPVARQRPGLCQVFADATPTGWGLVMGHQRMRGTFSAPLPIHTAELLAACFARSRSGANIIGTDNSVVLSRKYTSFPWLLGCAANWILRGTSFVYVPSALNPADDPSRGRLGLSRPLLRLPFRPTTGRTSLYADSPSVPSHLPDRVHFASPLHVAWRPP
T2 sequence (P03156 671-832): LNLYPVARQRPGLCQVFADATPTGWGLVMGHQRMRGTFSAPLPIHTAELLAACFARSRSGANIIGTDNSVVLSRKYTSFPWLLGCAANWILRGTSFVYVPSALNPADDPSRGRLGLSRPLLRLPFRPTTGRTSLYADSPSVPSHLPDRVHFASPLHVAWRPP

SMILES | log reduction at 5 µM (HSV-1) | IC50 (human RNaseH1) [µM] | HBV RNaseH (HBV RNaseH [1]; Table 1, qualitative inhibition in biochemical assay) | Inhibition of HBV RNaseH, Oligonucleotide directed cleavage assay (HBV RNaseH [1]) | inhibition of RNA cleavage by HBV RNaseH (HBV RNaseH [1]; compounds at 100, 60 and 20 μM) | inhibition in the molecular beacon assay (HBV RNaseH [2]) | Inhibition of HBV RNaseH, Molecular Beacon cleavage assay (HBV RNaseH [2]) | EC50 (HBV replication; [6]) [µM] | CC50 (MTT cytotoxicity assay) [µM] | Human RNaseH1 (human RNaseH1; Table 1, qualitative inhibition) | CC50 at 72 h [3] [µM] | CC50 at 72 h [4] [µM] | EC50 (HBV replication; Table 2, HepDES19 cells, read-out: EC50) [µM] | TI (therapeutic index, CC50(MTS)/EC50) (HepDES19 cells) | CC50 at 72 h [5] [µM] | HBV replication inhibition / activity (HBV replication; HepDES19 cells) | HBV replication inhibition (qualitative) (HBV replication; Table 3, qualitative screen at 20 μM) | effect on 32P incorporation in EPR (HBV polymerase) | reduction of DNA elongation in EPR (HBV polymerase; 7 hours, 37° C.) [%]
CCN(CC)C(=O)C1C(=O)N(O)C(=O)c2ccccc21 (stereo not shown) [Compound 83] | < 1 | 3.4 | +/− | − (No inhibition detected at 100 μM) | negative | inhibited | + (Dose-dependent inhibition at ≤500 μM) | 2.3 ± 1.6 | > 100 | – | – | – | – | – | – | – | – | – | –
O=C(NCc1ccc(F)cc1)C1C(=O)N(O)C(=O)c2cc(Cl)ccc21 (stereo not shown) [Compound 87] | < 1 | – | – | − (No inhibition detected at 100 μM) | – | – | − (No inhibition detected at 500 μM) | 4.5 ± 3.7 | 37 | +++ (detectable inhibition at 10 μM) | 52 ± 15 | 24 ± 1 | 1.6 | 8.2 | 37 ± 17 | – | – | – | –
O=C(Nc1ccc(F)cc1)C1C(=O)N(O)C(=O)c2ccccc21 (stereo not shown) [Compound 91] | < 1 | 8.7 | – | − (No inhibition detected at 100 μM) | – | – | − (No inhibition detected at 500 μM) | 4.6 ± 1 | – | – | – | – | – | – | – | – | – | – | –
CC1CC(=O)N(O)C(COc2ccc(Oc3ccc(Cl)cc3)cc2)C1 (stereo not shown) [Compound 211, Rilopirox, reference compound] | < 1 | – | – | − (No inhibition detected at 100 μM) | – | had no effect on the rate of substrate degradation | − (No inhibition detected at 500 μM) | – | – | – | – | – | – | – | – | inactive | − (No inhibition detected at 20 μM) | None of the HBV inhibitors or the two negative control compounds (#138 and 211) significantly altered incorporation | –
Cc1cn([C@H]2CC[C@@H](COP(=O)(O)OP(=O)(O)OP(=O)(O)O)O2)c(=O)[nH]c1=O [ddTTP] | – | – | – | – | – | – | – | – | – | – | – | – | – | – | – | – | – | strongly inhibited | ~90
